Experimental data from US9695155B2, “Herbicidal substituted pyrimidinyloxy benzene compounds” (E. I. DU PONT DE NEMOURS AND COMPANY, priority 2013, dated 2017).

Columns and labels:
Assay in all cases: Test E preemergence
corn = format: in vivo, Zea mays; settings: for Corn plant response rating: scale 0 to 100 (0 no effect, 100 complete control); for Plant response rating, Corn: scale 0 to 100, 0 no effect, 100 complete control
Summary of the method: (§1)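 Compound in a non-phytotoxic solvent mixture with surfactant was applied preemergence to seeds in silt loam soil, or postemergence to plants 2 to 18 cm tall grown in peat-based potting medium. Plants were kept in a greenhouse for 14 to 21 days, then rated visually against untreated controls on a 0 (no effect) to 100 (complete control) scale.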

soybean = format: in vivo, Glycine max; settings: for Soybean plant response rating: scale 0 to 100 (0 no effect, 100 complete control); for Plant response rating, Soybean: scale 0 to 100, 0 no effect, 100 complete control
Summary of the method: as §1

lambsquarters = format: in vivo, Chenopodium album; settings: for Lambsquarters plant response rating: scale 0 to 100 (0 no effect, 100 complete control); for Plant response rating, Lambsquarters: scale 0 to 100, 0 no effect, 100 complete control
Source text: (§2) Seeds of plant species selected from corn (Zea mays), soybean (Glycine max), velvetleaf (Abutilon theophrasti), lambsquarters (Chenopodium album), wild poinsettia (Euphorbia heterophylla), palmer pigweed (Amaranthus palmeri), waterhemp (common waterhemp, Amaranthus rudis), surinam grass (Brachiaria decumbens), large (Lg) crabgrass (Digitaria sanguinalis), Brazilian crabgrass (Digitaria horizontalis), fall panicum (Panicum dichotomiflorum), giant foxtail (Setaria faberii), green foxtail (Setaria viridis), goosegrass (Eleusine indica), johnsongrass (Sorghum halepense), ragweed (common ragweed, Ambrosia elatior), barnyardgrass (Echinochloa crus-galli), sandbur (southern sandbur, Cenchrus echinatus), arrowleaf sida (Sida rhombifolia), Italian ryegrass (Lolium multiflorum), dayflower (Virginia (VA) dayflower, Commelina virginica), field bindweed (Convolvulus arvensis), morningglory (Ipomoea coccinea), nightshade (eastern black nightshade, Solanum ptycanthum), kochia (Kochia scoparia), yellow nutsedge (Cyperus esculentus), cocklebur (common cocklebur, Xanthium strumarium), smartweed (ladysthumb smartweed, and hairy beggarticks (Bidens pilosa), were planted into a silt loam soil and treated preemergence with test chemicals formulated in a non-phytotoxic solvent mixture which included a surfactant.
(§3) At the same time, plants from these crop and weed species and also horseweed (Canada horseweed, Conyza canadensis), waterhemp_RES1, (ALS & Triazine resistant common waterhemp, Amaranthus rudis), and waterhemp_RES2, (ALS & HPPD resistant common waterhemp, Amaranthus rudis) were planted in pots containing Redi-Earth® planting medium (Scotts Company, 14111 Scottslawn Road, Marysville, Ohio 43041) comprising spaghnum peat moss, vermiculite, wetting agent and starter nutrients were treated with postemergence applications of test chemicals formulated in the same manner. Plants ranged in height from 2 to 18 cm for postemergence treatments (1- to 4-leaf stage). Treated plants and controls were maintained in a greenhouse for 14 to 21 days, after which time all species were compared to controls and visually evaluated. Plant response ratings, summarized in Table E, are based on a scale of 0 to 100 where 0 is no effect and 100 is complete control. A dash (-) response means no test result.

palmer pigweed = format: in vivo, Amaranthus palmeri; settings: for Pigweed, Palmer plant response rating: scale 0 to 100 (0 no effect, 100 complete control); for Plant response rating, Pigweed, Palmer: scale 0 to 100, 0 no effect, 100 complete control
Source text: as §2, §3

waterhemp = format: in vivo, Amaranthus rudis; settings: for Waterhemp plant response rating: scale 0 to 100 (0 no effect, 100 complete control); for Plant response rating, Waterhemp: scale 0 to 100, 0 no effect, 100 complete control
Source text: as §2, §3

surinam grass = format: in vivo, Brachiaria decumbens; settings: for Surinam Grass plant response rating: scale 0 to 100 (0 no effect, 100 complete control); for Plant response rating, Surinam Grass: scale 0 to 100, 0 no effect, 100 complete control
Summary of the method: as §1

fall panicum = format: in vivo, Panicum dichotomiflorum; settings: for Panicum, Fall plant response rating: scale 0 to 100 (0 no effect, 100 complete control); for Plant response rating, Panicum, Fall: scale 0 to 100, 0 no effect, 100 complete control
Source text: as §2, §3

giant foxtail = format: in vivo, Setaria faberii; settings: for Foxtail, Giant plant response rating: scale 0 to 100 (0 no effect, 100 complete control); for Plant response rating, Foxtail, Giant: scale 0 to 100, 0 no effect, 100 complete control
Source text: as §2, §3

goosegrass = format: in vivo, Eleusine indica; settings: for Goosegrass plant response rating: scale 0 to 100 (0 no effect, 100 complete control); for Plant response rating, Goosegrass: scale 0 to 100, 0 no effect, 100 complete control
Summary of the method: as §1

sandbur = format: in vivo, Cenchrus echinatus; settings: for Sandbur plant response rating: scale 0 to 100 (0 no effect, 100 complete control); for Plant response rating, Sandbur: scale 0 to 100, 0 no effect, 100 complete control
Summary of the method: as §1

Italian ryegrass = format: in vivo, Lolium multiflorum; settings: for Ryegrass, Italian plant response rating: scale 0 to 100 (0 no effect, 100 complete control); for Plant response rating, Ryegrass, Italian: scale 0 to 100, 0 no effect, 100 complete control
Source text: as §2, §3

morningglory = format: in vivo, Ipomoea coccinea; settings: for Morningglory plant response rating: scale 0 to 100 (0 no effect, 100 complete control); for Plant response rating, Morningglory: scale 0 to 100, 0 no effect, 100 complete control
Summary of the method: as §1

## N#Cc1cccc(Oc2ncc(Cl)cn2)c1-n1cc(C(F)(F)F)cn1 [Compound 58, 3-[(5-chloro-2-pyrimidinyl)oxy]-2-[4-(trifluoromethyl)-1H-pyrazol-1-yl]benzonitrile]
corn; 16 g ai/ha
  Corn plant response rating: 0
corn; 31 g ai/ha
  Corn plant response rating: 5
corn; 62 g ai/ha
  Corn plant response rating: 40
corn; 125 g ai/ha
  Plant response rating, Corn: 65
corn; 250 g ai/ha
  Plant response rating, Corn: 70
soybean; 16 g ai/ha
  Soybean plant response rating: 0
soybean; 31 g ai/ha
  Soybean plant response rating: 0
soybean; 62 g ai/ha
  Soybean plant response rating: 60
soybean; 125 g ai/ha
  Plant response rating, Soybean: 75
soybean; 250 g ai/ha
  Plant response rating, Soybean: 95
lambsquarters; 16 g ai/ha
  Lambsquarters plant response rating: 98
lambsquarters; 31 g ai/ha
  Lambsquarters plant response rating: 98
lambsquarters; 62 g ai/ha
  Lambsquarters plant response rating: 98
lambsquarters; 125 g ai/ha
  Plant response rating, Lambsquarters: 98
lambsquarters; 250 g ai/ha
  Plant response rating, Lambsquarters: 98
Palmer pigweed; 16 g ai/ha
  Pigweed, Palmer plant response rating: 100
Palmer pigweed; 31 g ai/ha
  Pigweed, Palmer plant response rating: 100
Palmer pigweed; 62 g ai/ha
  Pigweed, Palmer plant response rating: 100
Palmer pigweed; 125 g ai/ha
  Plant response rating, Pigweed, Palmer: 100
Palmer pigweed; 250 g ai/ha
  Plant response rating, Pigweed, Palmer: 100
waterhemp; 16 g ai/ha
  Waterhemp plant response rating: 98
waterhemp; 31 g ai/ha
  Waterhemp plant response rating: 100
waterhemp; 62 g ai/ha
  Waterhemp plant response rating: 100
waterhemp; 125 g ai/ha
  Plant response rating, Waterhemp: 100
waterhemp; 250 g ai/ha
  Plant response rating, Waterhemp: 100
Surinam grass; 16 g ai/ha
  Surinam Grass plant response rating: 0
Surinam grass; 31 g ai/ha
  Surinam Grass plant response rating: 0
Surinam grass; 62 g ai/ha
  Surinam Grass plant response rating: 25
Surinam grass; 125 g ai/ha
  Plant response rating, Surinam Grass: 65
Surinam grass; 250 g ai/ha
  Plant response rating, Surinam Grass: 90
Fall panicum; 16 g ai/ha
  Panicum, Fall plant response rating: 95
Fall panicum; 31 g ai/ha
  Panicum, Fall plant response rating: 98
Fall panicum; 62 g ai/ha
  Panicum, Fall plant response rating: 100
Fall panicum; 125 g ai/ha
  Plant response rating, Panicum, Fall: 100
Fall panicum; 250 g ai/ha
  Plant response rating, Panicum, Fall: 100
Giant foxtail; 16 g ai/ha
  Foxtail, Giant plant response rating: 75
Giant foxtail; 31 g ai/ha
  Foxtail, Giant plant response rating: 100
Giant foxtail; 62 g ai/ha
  Foxtail, Giant plant response rating: 100
Giant foxtail; 125 g ai/ha
  Plant response rating, Foxtail, Giant: 100
Giant foxtail; 250 g ai/ha
  Plant response rating, Foxtail, Giant: 100
goosegrass; 16 g ai/ha
  Goosegrass plant response rating: 10
goosegrass; 31 g ai/ha
  Goosegrass plant response rating: 70
goosegrass; 62 g ai/ha
  Goosegrass plant response rating: 95
goosegrass; 125 g ai/ha
  Plant response rating, Goosegrass: 100
goosegrass; 250 g ai/ha
  Plant response rating, Goosegrass: 100
sandbur; 16 g ai/ha
  Sandbur plant response rating: 0
sandbur; 31 g ai/ha
  Sandbur plant response rating: 20
sandbur; 62 g ai/ha
  Sandbur plant response rating: 75
sandbur; 125 g ai/ha
  Plant response rating, Sandbur: 90
sandbur; 250 g ai/ha
  Plant response rating, Sandbur: 95
Italian ryegrass; 16 g ai/ha
  Ryegrass, Italian plant response rating: 30
Italian ryegrass; 31 g ai/ha
  Ryegrass, Italian plant response rating: 35
Italian ryegrass; 62 g ai/ha
  Ryegrass, Italian plant response rating: 75
Italian ryegrass; 125 g ai/ha
  Plant response rating, Ryegrass, Italian: 98
Italian ryegrass; 250 g ai/ha
  Plant response rating, Ryegrass, Italian: 98
morningglory; 31 g ai/ha
  Morningglory plant response rating: 50
morningglory; 62 g ai/ha
  Morningglory plant response rating: 100
morningglory; 125 g ai/ha
  Plant response rating, Morningglory: 100
morningglory; 250 g ai/ha
  Plant response rating, Morningglory: 100
